Values joined by “and” are separate entries in the source; they are usually repeats but may differ in a detail not shown here. Identical values can stand only once. Like-named read-outs stand apart in the source and are kept apart here.
Test: In vivo pharmacokinetic in the rat after i.v. and p.o. administration of compound (IV)
[1] = compound (IV) i.v. 5 mg/kg, rat, individual rats
[2] = compound (IV) i.v. 5 mg/kg, rat, individual rats, 5 mg/kg
[3] = compound (IV) oral gavage 50 mg/kg, rat, individual rats, 50 mg/kg

Pharmacokinetic parameters (administered p.o. and i.v. in rats): good pharmacokinetic parameters
Metabolism in vivo (after i.v. and p.o. treatment, rat): metabolised quickly
Tlast [1]: 1440 min
Tmax [1]: 2 min
AUCinf [2]: 18700 ng·min/mL and 22424 ng·min/mL
AUClast [2]: 17271 ng·min/mL and 21300 ng·min/mL
Cl [2]: 229.9 mL/min/kg and 191.8 mL/min/kg
Clast [2]: 1.8 ng/mL and 1.7 ng/mL
Cmax [2]: 529 ng/mL and 851.2 ng/mL
MRT [2]: 209 min and 175 min
T½ [2]: 547.1 min and 451.8 min
Vdss [2]: 115.3 L/kg and 51.9 L/kg
Tlast Mean (compound (IV) i.v. 5 mg/kg, rat, mean): 1440 min
AUCinf [3]: 3985 ng·min/mL and 5954 ng·min/mL
AUClast [3]: 3943 ng·min/mL and 5925 ng·min/mL
Clast [3]: 2.9 ng/mL and 0.8 ng/mL and 1.3 ng/mL
Cmax [3]: 104 ng/mL and 174 ng/mL
MRTlast [3]: 48 min and 32 min and 23 min
Tlast [3]: 240 min (2×) and 120 min
Tmax [3]: 30 min and 15 min and 5 min
Tlast Mean (compound (IV) oral gavage 50 mg/kg, rat, mean): 200 min
bioavailability (plasma, oral gavage 50 mg/kg vs i.v. 5 mg/kg, rat, read-out: Mean Fpo 0_inf (%) (mean p.o. bioavailability)): 2.4%
AUC(0-inf) (rat, plasma, iv, 5 mg/kg, compound (IV) i.v. 5 mg/kg, rat, individual rats, read-out: AUCinf (converted)): 341 ng·h/mL
AUC(0-t) (rat, plasma, iv, 5 mg/kg, compound (IV) i.v. 5 mg/kg, rat, individual rats, read-out: AUClast (converted)): 296 ng·h/mL
clearance (rat, plasma, iv, 5 mg/kg, compound (IV) i.v. 5 mg/kg, rat, individual rats, read-out: Cl): 210 mL/min/kg
concentration at 1440 min (rat, plasma, iv, 5 mg/kg, compound (IV) i.v. 5 mg/kg, rat, individual rats, read-out: Clast): 2.9 ng/mL
Cmax (rat, plasma, iv, 5 mg/kg, compound (IV) i.v. 5 mg/kg, rat, individual rats, read-out: Cmax): 598 ng/mL
MRT (rat, plasma, iv, 5 mg/kg, compound (IV) i.v. 5 mg/kg, rat, individual rats, read-out: MRT (converted)): 273 min
Tmax (rat, plasma, iv, 5 mg/kg, compound (IV) i.v. 5 mg/kg, rat, individual rats, read-out: Tmax (converted)): 2 min
half-life (rat, plasma, iv, 5 mg/kg, compound (IV) i.v. 5 mg/kg, rat, individual rats, read-out: T½): 638 min
AUC(0-inf) (rat, plasma, iv, 5 mg/kg, compound (IV) i.v. 5 mg/kg, rat, mean, read-out: AUCinf Mean (converted)): 342 ng·h/mL
AUC(0-t) (rat, plasma, iv, 5 mg/kg, compound (IV) i.v. 5 mg/kg, rat, mean, read-out: AUClast Mean (converted)): 313 ng·h/mL
clearance (rat, plasma, iv, 5 mg/kg, compound (IV) i.v. 5 mg/kg, rat, mean, read-out: Cl Mean): 211 mL/min/kg
concentration at 1440 min (rat, plasma, iv, 5 mg/kg, compound (IV) i.v. 5 mg/kg, rat, mean, read-out: Clast Mean): 2.1 ng/mL
Cmax (rat, plasma, iv, 5 mg/kg, compound (IV) i.v. 5 mg/kg, rat, mean, read-out: Cmax Mean): 659 ng/mL
MRT (rat, plasma, iv, 5 mg/kg, compound (IV) i.v. 5 mg/kg, rat, mean, read-out: MRT Mean (converted)): 219 min
Tmax (rat, plasma, iv, 5 mg/kg, compound (IV) i.v. 5 mg/kg, rat, mean, read-out: Tmax Mean (converted)): 2 min
half-life (rat, plasma, iv, 5 mg/kg, compound (IV) i.v. 5 mg/kg, rat, mean, read-out: T½ Mean): 546 min
Vd (rat, plasma, iv, 5 mg/kg, compound (IV) i.v. 5 mg/kg, rat, mean, read-out: Vdss Mean): 83.5 L/kg
concentration at 200 min (rat, plasma, oral, 50 mg/kg, compound (IV) oral gavage 50 mg/kg, rat, mean, read-out: Clast Mean): 2.8 ng/mL
concentration at 4 h (rat, plasma, po, 50 mg/kg, after p.o. administration, rat, 4 hours): 1 ng/mL
Cmax (rat, plasma, po, 50 mg/kg, after p.o. administration, rat, read-out: Cmax): 95 ng/mL
AUC(0-inf) (rat, plasma, po, 50 mg/kg, compound (IV) oral gavage 50 mg/kg, rat, individual rats, read-out: AUCinf (converted)): 76.5 ng·h/mL
AUC(0-t) (rat, plasma, po, 50 mg/kg, compound (IV) oral gavage 50 mg/kg, rat, individual rats, read-out: AUClast (converted)): 67.4 ng·h/mL
Cmax (rat, plasma, po, 50 mg/kg, compound (IV) oral gavage 50 mg/kg, rat, individual rats, read-out: Cmax): 89 ng/mL
AUC(0-inf) (rat, plasma, po, 50 mg/kg, compound (IV) oral gavage 50 mg/kg, rat, mean, read-out: AUCinf Mean (converted)): 80.7 ng·h/mL
AUC(0-t) (rat, plasma, po, 50 mg/kg, compound (IV) oral gavage 50 mg/kg, rat, mean, read-out: AUClast Mean (converted)): 77.3 ng·h/mL
Cmax (rat, plasma, po, 50 mg/kg, compound (IV) oral gavage 50 mg/kg, rat, mean, read-out: Cmax Mean): 122 ng/mL
MRT last (rat, plasma, po, 50 mg/kg, compound (IV) oral gavage 50 mg/kg, rat, mean, read-out: MRTlast Mean (converted)): 35 min
Tmax (rat, plasma, po, 50 mg/kg, compound (IV) oral gavage 50 mg/kg, rat, mean, read-out: Tmax Mean (converted)): 16.7 min
Compound: CCCC(=O)Oc1ccc(N)cc1C(=O)O.Cl [Compound (IV), 5-amino-2-(butyryloxy)benzoic acid]

— patent US9193673B2, “Derivatives of mesalazine, process of their preparation and their use in the treatment of intestinal inflammatory diseases” (SOFAR SPA, priority 2010, dated 2015)
